Experimental findings from patent publication US8796256B2 (Janssen Pharmaceutica NV, priority 2010, dated 2014) are described below.

The structures appear in SMILES notation.

A word on the EC50: it is the concentration that produces a half-maximal response.

In the assay the target is T1, ERR1 (also known as ERR-α or ERR-1) (Homo sapiens, UniProt P11474).
T1 sequence (P11474 193-421 limits assumed): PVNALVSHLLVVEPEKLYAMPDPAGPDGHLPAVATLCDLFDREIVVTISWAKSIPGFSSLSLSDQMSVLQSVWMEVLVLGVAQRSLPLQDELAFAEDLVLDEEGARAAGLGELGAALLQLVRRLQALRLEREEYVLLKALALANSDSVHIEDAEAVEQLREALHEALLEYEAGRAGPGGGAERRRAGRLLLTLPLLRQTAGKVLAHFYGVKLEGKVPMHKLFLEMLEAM
The assay is described as follows: TR-FRET assay (disruption of co-activator peptide binding to ERR1 LBD). It counts as biochemical. The conditions noted are these: 6 nM 6His-ERR1LBD, 6 nM GST-SRC-2 peptide; average of 3 independent experiments. In a few lines: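 Homogeneous TR-FRET measuring displacement of GST-hSRC2 co-activator peptide (6 nM) from His-tagged ERR1 LBD (6 nM), detected with α-GST Eu cryptate (30 nM) and α-His-XL665 (7.5 nM). Buffer 25 mM Tris pH 8, 2.5 mM Hepes, 20 mM KCl, 1 mM DTT, 0.05 mg/mL delipidated BSA; equilibration 4-18 h at 25° C. Hyperbolic dose-response fit, mean of 3 experiments.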
A general note: In TR-FRET formats the signal depends on donor and acceptor labels being close together.
`O=C1S/C(=C\c2ccc3c(ccn3Cc3ccc(C(F)(F)F)cc3C(F)(F)F)c2)C(=O)N1CCO` [Compound 242, (5Z)-5-[(1-{[2,4-Bis(trifluoromethyl)phenyl]methyl}-1H-indol-5-yl)methylidene]-3-(2-hydroxyethyl)-1,3-thiazolidine-2,4-dione] had an EC50 of 100 nM.
To `O=C1S/C(=C\c2ccc3c(cnn3Cc3ccc(Cl)cc3C(F)(F)F)c2)C(=O)N1Cc1nc[nH]n1` [Compound 90, (5Z)-5-({1-[4-Chloro-2-(trifluoromethyl)benzyl]-1H-indazol-5-yl}methylidene)-3-(1H-1,2,4-triazol-3-ylmethyl)-1,3-thiazolidine-2,4-dione] belongs 28 nM; to `COC(=O)CN1C(=O)S/C(=C\c2ccc3c(cnn3[C@@H]3CCc4cc(Cl)ccc43)c2)C1=O` [Compound 177, Methyl [(5Z)-5-({1-[(1R)-5-chloro-2,3-dihydro-1H-inden-1-yl]-1H-indazol-5-yl}methylidene)-2,4-dioxo-1,3-thiazolidin-3-yl]acetate], 6000 nM.
To `O=C1S/C(=C\c2ccc3c(cnn3Cc3ccc(Cl)cc3C(F)(F)F)c2)C(=O)N1CC(O)CO` (centres unmarked) [Compound 43, (5Z)-5-({1-[4-Chloro-2-(trifluoromethyl)benzyl]-1H-indazol-5-yl}methylidene)-3-(2,3-dihydroxypropyl)-1,3-thiazolidine-2,4-dione] belongs 16 nM.
To `O=C1S/C(=C\c2ccc3c(cnn3Cc3ccc(Cl)cc3C(F)(F)F)c2)C(=O)N1C1CCCNCC1` (centres unmarked) [Compound 77, (5Z)-3-Azepan-4-yl-5-({1-[4-chloro-2-(trifluoromethyl)benzyl]-1H-indazol-5-yl}methylidene)-1,3-thiazolidine-2,4-dione] belongs 28 nM; to `O=C(CN1C(=O)S/C(=C\c2ccc3c(ccn3Cc3ccc(C(F)(F)F)cc3C(F)(F)F)c2)C1=O)N1CCOCC1` [Compound 241, (5Z)-5-[(1-{[2,4-Bis(trifluoromethyl)phenyl]methyl}-1H-indol-5-yl)methylidene]-3-(2-morpholin-4-yl-2-oxoethyl)-1,3-thiazolidine-2,4-dione], 100 nM.
Consider `CC(C)(C)NCCN1C(=O)S/C(=C\c2ccc3c(cnn3Cc3ccc(Cl)cc3C(F)(F)F)c2)C1=O` [Compound 46, (5Z)-3-[2-(tert-Butylamino)ethyl]-5-({1-[4-chloro-2-(trifluoromethyl)benzyl]-1H-indazol-5-yl}methylidene)-1,3-thiazolidine-2,4-dione], for which a half-maximal response (EC50) required 19 nM.
For `O=C1S/C(=C\c2ccc3c(cnn3Cc3ccc(Cl)cc3C(F)(F)F)c2)C(=O)N1CCn1ccnc1` [Compound 296, (5Z)-5-({1-[4-Chloro-2-(trifluoromethyl)benzyl]-1H-indazol-5-yl}methylidene)-3-[2-(1H-imidazol-1-yl)ethyl]-1,3-thiazolidine-2,4-dione] the value was 17 nM; for `O=C1S/C(=C\c2ccc3c(cnn3Cc3ccc(Cl)cc3C(F)(F)F)c2)C(=O)N1Cc1cncs1` [Compound 94, (5Z)-5-({1-[4-Chloro-2-(trifluoromethyl)benzyl]-1H-indazol-5-yl}methylidene)-3-(1,3-thiazol-5-ylmethyl)-1,3-thiazolidine-2,4-dione], not below 10000 nM; for `O=C(O)CCCN1C(=O)S/C(=C\c2ccc3c(cnn3Cc3ccc(Cl)cc3C(F)(F)F)c2)C1=O` [Compound 97, 4-[(5Z)-5-({1-[4-Chloro-2-(trifluoromethyl)benzyl]-1H-indazol-5-yl}methylidene)-2,4-dioxo-1,3-thiazolidin-3-yl]butanoic acid], 47 nM.
To `O=C1S/C(=C\c2ccc3c(ccn3Cc3ccc(Cl)cc3C(F)(F)F)c2)C(=O)N1C[C@H]1COCCN1` [Compound 256, (5Z)-5-({1-[4-Chloro-2-(trifluoromethyl)benzyl]-1H-indol-5-yl}methylidene)-3-[(3S)-morpholin-3-ylmethyl]-1,3-thiazolidine-2,4-dione] belongs 110 nM.
